Assays:
Format in all cases: biochemical
[1] = biological target: T1, RET wt (Homo sapiens, UniProt P07949); assay: In vitro kinase activity assay (mobility shift assay), RET wild type; settings: ATP 16 μM, reaction time 60 min
T1 construct: purchased Carna 08-159
Method: (§1) The IC50 (half inhibitory concentration) values of the compounds were used as an indicator to evaluate the inhibitory effect of the compound on RET wild-type, RET mutant, TRKa, SRC, BTK and/or mutated BTK kinase.
(§2) Using the method of Mobility shift assay, the compounds were tested for inhibitory activity against the following kinases: RET wild type, RET mutant, TRKa, SRC, BTK and/or mutated BTK. The initial concentration of the test compound was 1000 nM, 3-fold dilution, 10 concentrations, detected in a well for each concentration.
(§3) 20 mM hydroxyethylpiperazineethanesulfonic acid (Hepes) (pH 7.5) buffer, 10 mM MgCl2, 1 mM ethylene glycol bis(aminoethyl ether)tetraacetic acid (EGTA), 0.02% polyoxyethylene lauryl ether (Brij35), 0.02 mg/ml […] (BSA), 0.1 mM Na3VO4, 2 mM dithiothreitol (DTT), 1% DMSO.
(§4) The test compounds were dissolved in 100% dimethyl sulfoxide (DMSO) system, and prepared as 10 mM for use, and stored in a nitrogen cabinet away from light.
(§5) • (1) Preparing 1× kinase reaction buffer. • (2) Preparation of compound concentration gradient: the initial concentration of the compounds was 1000 nM, which was diluted as 100-fold final concentration of solution in 100% dimethyl sulfoxide (DMSO) in a 384-well plate. The compound was accurately 3-fold diluted with the kinase buffer solution, 10 concentrations in total, and the final concentration was 0.0508 nM. The 100-fold final concentration of solution in 100% dimethyl sulfoxide (DMSO) was obtained by dilution in 384 source plate. The liquid separator Echo 550 was used to transfer 250 nl of 100-fold final concentration of compound to the target 384 well plate. 250 nl of DMSO was added to the positive and negative control wells. • (3) 2.5-fold final concentration of kinase solution was prepared by the 1× kinase buffer. • (4) 10 4, of 2.5-fold final concentration of kinase solution was added to the compound well and the positive control well, respectively; 10 4, of 1× kinase buffer was added to the negative control well. • (5) After centrifuging at 1000 rpm for 30 second, the reaction plate was shaken and mixed, followed by incubation at room temperature for 10 min. • (6) a mixed solution of 25/15-fold final concentration of adenosine triphosphate (ATP) and kinase substrate was prepared by 1× kinase buffer. • (7) The mixed solution (15 μL) of 25/15-fold final concentration of adenosine triphosphate (ATP) and substrate was added to initiate the reaction. • (8) 384-well plate was centrifuged at 1000 rpm for 30 second, shaken and mixed well, and then incubated at room temperature for 30-240 min. • (9) After stopping the kinase reaction, the plate was centrifugated at 1000 rpm for 30 second, shaken and mixed well. • (10)The conversion rate was read with Caliper EZ Reader.
(§6) wherein Conversion%_sample is the conversion rate reading of the sample; Conversion%_min: the mean value of negative control wells, representing the conversion rate reading of wells without enzymes; Conversion%_max: the mean value of positive control wells, representing the conversion rate reading of wells without compound inhibition.
(§7) The log value of concentration was taken as the X axis, and the percentage inhibition rate was taken as the Y axis. Graphpad 6.0 analysis software was used to fit the dose-response curve, so as to obtain the IC50 value of each compound on the enzyme activity

[2] = biological target: T2, BTK (Homo sapiens, UniProt Q06187); assay: In vitro kinase activity assay (mobility shift assay), BTK; settings: ATP 71 μM, reaction time 30 min
T2 construct: purchased Carna 08-180
Method: as §1, §2, §3, §4, §5, §6, §7

[3] = biological target: T3, BTK C481S (Homo sapiens, UniProt Q06187, C481S); assay: In vitro kinase activity assay (mobility shift assay), BTK C481S; settings: ATP 90 μM, reaction time 30 min
T3 construct: purchased Carna 08-547
Method: as §1, §2, §3, §4, §5, §6, §7

[4] = biological target: T4, TRKa (Homo sapiens, UniProt P04629); assay: In vitro kinase activity assay (mobility shift assay), TRKa; settings: ATP 47.8 μM, reaction time 30 min
T4 construct: purchased Carna 08-186
Method: as §1, §2, §3, §4, §5, §6, §7

[5] = biological target: T5, RET G810R (Homo sapiens, UniProt P07949, G810R); assay: In vitro kinase activity assay (mobility shift assay), RET G810R; settings: ATP 201 μM, reaction time 4 h
T5 construct: purchased Proqinase 1724-0000-1
Method: as §1, §2, §3, §4, §5, §6, §7

T3 sequence (Q06187 whole entry C481S): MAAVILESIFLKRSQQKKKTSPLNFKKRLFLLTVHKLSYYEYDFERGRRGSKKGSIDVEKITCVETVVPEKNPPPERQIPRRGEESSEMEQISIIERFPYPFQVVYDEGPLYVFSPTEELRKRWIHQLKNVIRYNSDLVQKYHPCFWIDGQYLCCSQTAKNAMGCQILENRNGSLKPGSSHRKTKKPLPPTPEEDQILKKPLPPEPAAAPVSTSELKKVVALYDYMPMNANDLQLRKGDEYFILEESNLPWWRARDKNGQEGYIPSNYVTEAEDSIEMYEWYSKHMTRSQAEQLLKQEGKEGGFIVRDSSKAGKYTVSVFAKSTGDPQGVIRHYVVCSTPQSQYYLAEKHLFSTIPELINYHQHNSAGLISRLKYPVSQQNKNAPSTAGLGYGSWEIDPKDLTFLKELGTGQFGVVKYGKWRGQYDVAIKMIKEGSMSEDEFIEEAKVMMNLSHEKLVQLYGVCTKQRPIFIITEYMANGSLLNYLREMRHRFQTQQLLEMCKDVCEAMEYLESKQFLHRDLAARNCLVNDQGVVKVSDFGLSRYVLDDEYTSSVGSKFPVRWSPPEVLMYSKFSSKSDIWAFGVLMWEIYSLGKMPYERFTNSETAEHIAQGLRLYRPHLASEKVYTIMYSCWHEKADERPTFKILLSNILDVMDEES
T2 sequence (Q06187 whole entry): as the sequence (Q06187 whole entry C481S) above, with S481C counted along it
T1 sequence (P07949 29-1114): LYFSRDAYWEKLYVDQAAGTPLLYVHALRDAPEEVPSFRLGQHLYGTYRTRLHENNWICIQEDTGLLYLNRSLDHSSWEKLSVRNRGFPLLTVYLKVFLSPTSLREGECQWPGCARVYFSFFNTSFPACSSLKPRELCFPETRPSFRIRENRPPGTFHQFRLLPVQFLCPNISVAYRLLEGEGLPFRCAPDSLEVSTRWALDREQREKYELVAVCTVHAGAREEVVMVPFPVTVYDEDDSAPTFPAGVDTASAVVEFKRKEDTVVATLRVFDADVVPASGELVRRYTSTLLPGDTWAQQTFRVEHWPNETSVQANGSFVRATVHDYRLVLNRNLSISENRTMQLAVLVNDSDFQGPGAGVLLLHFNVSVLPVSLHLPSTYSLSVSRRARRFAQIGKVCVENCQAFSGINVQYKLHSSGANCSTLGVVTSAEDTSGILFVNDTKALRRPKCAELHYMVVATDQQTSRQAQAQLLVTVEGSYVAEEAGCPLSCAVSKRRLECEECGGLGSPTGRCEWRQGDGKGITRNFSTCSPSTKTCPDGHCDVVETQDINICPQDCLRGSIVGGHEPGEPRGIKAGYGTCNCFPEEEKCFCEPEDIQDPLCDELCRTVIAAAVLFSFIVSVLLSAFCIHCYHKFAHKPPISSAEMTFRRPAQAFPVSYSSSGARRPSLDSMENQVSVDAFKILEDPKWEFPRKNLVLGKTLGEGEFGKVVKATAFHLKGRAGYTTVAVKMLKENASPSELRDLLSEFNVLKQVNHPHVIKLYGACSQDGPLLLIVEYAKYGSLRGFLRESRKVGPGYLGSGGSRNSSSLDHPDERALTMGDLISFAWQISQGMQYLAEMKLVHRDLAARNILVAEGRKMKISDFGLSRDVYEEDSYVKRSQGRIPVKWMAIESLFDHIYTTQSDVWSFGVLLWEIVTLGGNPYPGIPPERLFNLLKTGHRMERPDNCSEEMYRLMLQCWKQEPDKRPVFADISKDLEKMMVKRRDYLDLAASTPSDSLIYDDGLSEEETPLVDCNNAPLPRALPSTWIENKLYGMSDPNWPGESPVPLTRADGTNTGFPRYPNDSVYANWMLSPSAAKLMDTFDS
T4 sequence (P04629 33-796): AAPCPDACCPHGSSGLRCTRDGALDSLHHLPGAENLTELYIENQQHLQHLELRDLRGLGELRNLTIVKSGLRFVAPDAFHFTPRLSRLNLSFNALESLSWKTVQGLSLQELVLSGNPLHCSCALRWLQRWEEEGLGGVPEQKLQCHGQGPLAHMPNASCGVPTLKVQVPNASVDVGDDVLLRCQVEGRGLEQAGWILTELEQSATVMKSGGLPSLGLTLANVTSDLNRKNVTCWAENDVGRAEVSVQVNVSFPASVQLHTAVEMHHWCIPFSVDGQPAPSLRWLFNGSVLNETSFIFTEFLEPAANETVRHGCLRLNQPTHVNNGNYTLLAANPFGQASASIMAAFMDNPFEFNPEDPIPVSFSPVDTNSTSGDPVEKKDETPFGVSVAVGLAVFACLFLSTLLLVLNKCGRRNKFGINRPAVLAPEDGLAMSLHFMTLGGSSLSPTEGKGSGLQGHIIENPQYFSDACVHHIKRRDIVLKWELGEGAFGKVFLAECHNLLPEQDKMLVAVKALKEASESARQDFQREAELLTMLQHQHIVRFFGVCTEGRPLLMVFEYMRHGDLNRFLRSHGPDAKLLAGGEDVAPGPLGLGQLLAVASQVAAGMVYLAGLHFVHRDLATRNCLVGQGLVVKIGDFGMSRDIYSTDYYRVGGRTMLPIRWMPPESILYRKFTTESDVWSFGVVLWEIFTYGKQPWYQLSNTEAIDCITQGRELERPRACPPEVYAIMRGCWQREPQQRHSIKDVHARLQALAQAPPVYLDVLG
T5 sequence (P07949 29-1114 G810R): as the sequence (P07949 29-1114) above, with G782R counted along it

Row | SMILES | IC50 [1] [nM] | IC50 [2] [nM] | IC50 [3] [nM] | IC50 [4] [nM] | IC50 [5] [nM]
1 | C[C@H]1CNC(=O)c2cnn3cc(O)c(nc23)NCc2cc(F)cnc2O1 [Compound 2, (S, 1^3E, 1^4E)-4^5-fluoro-6-methyl-1^6-hydroxy-5-oxa-2,8-diaza-1(5,3)-pyrazolo[1,5-a]pyrimidina-4(3,2)-pyridinacyclononaphan-9-one] | 5280 | – | – | 46 | –
2 | C[C@H]1CNC(=O)c2cnn3cc(-c4ccc(=O)n(C)c4)c(nc23)NCc2cc(F)cnc2O1 [Compound 20, (S, 1^3E, 1^4E)-4^5-fluoro-6-methyl-1^6-(1-methyl-6-oxo-1,6-dihydropyridin-3-yl)-5-oxa-2,8-diaza-1(5,3)-pyrazolo[1,5-a]pyrimidin-4(3,2)-pyridinacyclononaphan-9-one] | > 10000 | – | – | > 10000 | –
3 | C[C@H]1CNC(=O)c2cnn3cc(-c4ccc(C(F)(F)F)cc4)c(nc23)NCc2cc(F)cnc2O1 [Compound 14, (S, 1^3E, 1^4E)-1^6-(4-trifluoromethylphenyl)-4^5-fluoro-6-methyl-5-oxa-2,8-diaza-1(5,3)-pyrazolo[1,5-a]pyrimidina-4(3,2)-pyridinacyclononaphan-9-one] | 127 | – | – | > 10000 | –
4 | Cc1ccc(-c2cn3ncc4c3nc2NCc2cc(F)cnc2O[C@@H](C)CNC4=O)cc1 [Compound 11, (S, 1^3E, 1^4E)-1^6-(4-methylphenyl)-4^5-fluoro-6-methyl-5-oxa-2,8-diaza-1(5,3)-pyrazolo[1,5-a]pyrimidina-4(3,2)-pyridinacyclononaphan-9-one] | 15 | – | – | 925 | –
5 | C[C@H]1CNC(=O)c2cnn3cc(-c4ccccc4C(F)(F)F)c(nc23)NCc2cc(F)cnc2O1 [Compound 16, (S, 1^3E, 1^4E)-1^6-(2-trifluoromethylphenyl)-4^5-fluoro-6-methyl-5-oxa-2,8-diaza-1(5,3)-pyrazolo[1,5-a]pyrimidina-4(3,2)-pyridinacyclononaphan-9-one] | 543 | – | – | 1370 | –
6 | COc1cc(-c2cn3ncc4c3nc2NCc2cc(F)cnc2O[C@@H](C)CNC4=O)ccn1 [Compound 5, (S, 1^3E, 1^4E)-4^5-fluoro-1^6-(2-methoxypyridin-4-yl)-6-methyl-5-oxa-2,8-diaza-1(5,3)-pyrazolo[1,5-a]pyrimidin-4(3, 2)-pyridinacyclononaphan-9-one] | 237 | – | – | > 10000 | –
7 | C[C@H]1CNC(=O)c2cnn3cc(Nc4ccccc4)c(nc23)NCc2cc(F)cnc2O1 [Compound 25, (S, 1^3E, 1^4E)-4^5-fluoro-6-methyl-1^6-phenylamino-5-oxa-2,8-diaza-1(5,3)-pyrazolo[1,5-a]pyrimidina-4(3,2)-pyridinacyclononaphan-9-one] | 366 | – | – | > 10000 | –
8 | C[C@H]1CNC(=O)c2cnn3cc(C4CC4)c(nc23)NCc2cc(F)cnc2O1 [Compound 23, (S, 1^3E, 1^4E)-1^6-cyclopropyl-4^5-fluoro-6-methyl-5-oxa-2,8-diaza-1(5,3)-pyrazolo[1,5-a]pyrimidin-4(3,2)-pyridinacyclononaphan-9-one] | 448 | – | – | > 10000 | –
9 | C[C@H]1CNC(=O)c2cnn3c(N)c(-c4ccc5[nH]ccc5c4)c(nc23)NCc2cc(F)cnc2O1 [Compound 53, (S, 1^3E, 1^4E)-1^7-amino-4^5-fluoro-1^6-(1H-indo1-5-yl)-6-methyl-5-oxo-2,8-diaza-1(5,3)-pyrazolo[1,5-a]pyrimidin-4(3,2)-pyridinacyclononaphan-9-one] | > 1000 | > 1000 | > 1000 | – | > 1000

Compounds with a lower IC50 [1], results first:

Row | IC50 [1] [nM] | IC50 [2] [nM] | IC50 [3] [nM] | IC50 [4] [nM] | IC50 [5] [nM] | SMILES
10 | 13 | – | – | 1240 | – | C[C@H]1CNC(=O)c2cnn3cc(-c4ccc(F)cc4)c(nc23)NCc2cc(F)cnc2O1 [Compound 8, (S, 1^3E, 1^4E)-1^6-(4-fluorophenyl)-4^5-fluoro-6-methyl-5-oxa-2,8-diaza-1(5,3)-pyrazolo[1,5-a]pyrimidina-4(3,2)-pyridinacyclononaphan-9-one]
11 | 10 | – | – | 1850 | – | C[C@H]1CNC(=O)c2cnn3cc(-c4cccc(F)c4)c(nc23)NCc2cc(F)cnc2O1 [Compound 7, (S, 1^3E, 1^4E)-1^6-(3-fluorophenyl)-4^5-fluoro-6-methyl-5-oxa-2,8-diaza-1(5,3)-pyrazolo[1,5-a]pyrimidina-4(3,2)-pyridinacyclononaphan-9-one]
12 | 9 | – | – | > 10000 | – | C[C@H]1CNC(=O)c2cnn3cc(-c4ccccc4)c(nc23)N[C@H](C)c2cc(F)cnc2O1 [Compound 26, (1^3E, 1^4E, 3R, 6S)-4^5-fluoro-3,6-dimethyl-1^6-phenyl-5-oxa-2,8-diaza-1(5,3)-pyrazolo[1,5-a]pyrimidin-4(3,2)-pyridinacyclononaphan-9-one]
13 | 5.9 | – | – | > 10000 | – | C[C@H]1CNC(=O)c2cnn3cc(-c4ccc(Cl)cc4Cl)c(nc23)NCc2cc(F)cnc2O1 [Compound 21, (S, 1^3E, 1^4E)-1^6-(2,4-dichlorophenyl)-4^5-fluoro-6-methyl-5-oxa-2,8-diaza-1(5,3)-pyrazolo[1,5-a]pyrimidin-4(3,2)-pyridinacyclononaphan-9-one]
14 | 5.1 | – | – | 1340 | – | C[C@H]1CNC(=O)c2cnn3cc(-c4ccccc4F)c(nc23)NCc2cc(F)cnc2O1 [Compound 6, (S, 1^3E, 1^4E)-1^6-(2-fluorophenyl)-4^5-fluoro-6-methyl-5-oxa-2,8-diaza-1(5,3)-pyrazolo[1,5-a]pyrimidina-4(3,2)-pyridinacyclononaphan-9-one]
15 | 3.9 | 346 | 42.4 | – | 70 | CC(C)OC(=O)Nc1ccc(-c2cn3ncc4c3nc2NCc2cc(F)cnc2O[C@@H](C)CNC4=O)c(Cl)c1 [Compound 45, iso-propyl 3-chloro-4-((S, 1^3E, 1^4E)-4^5-fluoro-6-methyl-9-oxo-5-oxa-aza-1(5,3)-pyrazolo[1,5-a]pyrimidin-4(3,2)-pyridinacyclononaphan-1^6-yl)phenyl) carbamate]
16 | 2.1 | 3.5 | 6.6 | – | – | Nc1c(-c2ccccc2)c2nc3c(cnn13)C(=O)NCCOc1ncc(F)cc1CN2 [Example 65, (1^3E, 1^4E)-1^7-amino-4^5-fluoro-1^6-phenyl-5-oxa-2,8-diaza-1(5,3)-pyrazolino[1,5-a]pyrimidin-4(3,2)-pyridinacyclononaphan-9-one]
17 | 1.6 | 1 | 1.9 | – | – | C[C@H]1CNC(=O)c2cnn3c(N)c(-c4ccc(F)cc4)c(nc23)NCc2cc(F)cnc2O1 [Compound 51, (S, 1^3E, 1^4E)-1^7-amino-1^6-(4-fluorophenyl)-4^5-fluoro-6-methyl-5-oxa-2,8-diaza-1(5,3)-pyrazolino[1,5-a]pyrimidin4(3,2)-pyridinacyclononaphan-9-one]
18 | 0.83 | 1.8 | 1.48 | – | – | C[C@H]1CNC(=O)c2cnn3c(N)c(-c4ccc(Cl)cc4)c(nc23)NCc2cc(F)cnc2O1 [Compound 50, (S, 1^3E, 1^4E)-1^7-amino-1^6-(4-chlorophenyl)-4^5-fluoro-6-methyl-5-oxa-2,8-diaza-1(5,3)-pyrazolino[1,5-a]pyrimidin-4(3,2)-pyridinacyclononaphan-9-one]

Reference: patent US20230219978A1, “COMPOUND HAVING MACROCYCLIC STRUCTURE AND USE THEREOF” (SCINNOHUB PHARMACEUTICAL CO., LTD, priority 2020, published 2023)
